Source: patent US20240041976A1, “COMPOSITION AND USE” (priority 2020, published 2024)
Where two headings read alike, the source gives them in different places. No end group written: not given here.

How the values were obtained:
MRSA 43484 = experiment: AAMP assay and checkerboard synergy; format: cell-based, Staphylococcus aureus; conditions: MRSA 43484; for MIC: Staphylococcus aureus, 24 h, read-out: MIC, single antimicrobial
Method: (§1) Antimicrobial activity was measured using the AAMP assay (Wiegand et al., 2008, Nat. Protoc., Vol. 3(2), p 163-175).
(§2) Synergy testing was done with a microtiter plate checkerboard assay as previously described (Orhan et al., 2005, J. Clin. Microbiol., Vol. 43(1), p 140-143). Briefly, equal amounts of antimicrobial A were applied on microtiter plate 1 in wells A1-H1 and then diluted two-fold to wells 2-12. Similarly, equal amounts of antimicrobial B were applied on microtiter plate 2 in wells A1-A12 and diluted two-fold in wells B-H. Volumes of 50 μl of antimicrobial A from each well of microtiter plate 1 were transferred into microtiter plate 3, except for wells H1-H12. Similarly, the same volumes were transferred from microtiter plate 2 into plate 3, except for wells A1-A8. A 100 μl volume of 25 times diluted ON bacterial culture of MRSA was transferred into each well of plate 3. A 50 μl volume of pure broth was added into each well in lines H1-H12 and A1-A8 which were used to estimate MIC values of pure substances (blank).
(§3) Three-component synergy was assessed by mixing the three components (100 μg of PenG, 50 μg of GarKS and 2.5 μg of MP1) into one well of a microtiter plate, compared with activity of individual antimicrobials on the same plate. The fractional inhibition concentration (FIC) which was used to define synergy was calculated as set forth in Example 1.

MRSA ATCC 33591-lux = experiment: AAMP assay and checkerboard synergy; format: cell-based, Staphylococcus aureus; conditions: for MIC: Staphylococcus aureus, 24 h, read-out: MIC, single antimicrobial
Method: as §1, §2, §3

MRSA USA-300 = experiment: AAMP assay and checkerboard synergy; format: cell-based, Staphylococcus aureus; conditions: for MIC: Staphylococcus aureus, 24 h, read-out: MIC, single antimicrobial
Method: as §1, §2, §3

MRSA ATCC 33591 = experiment: microbe, parasite or virus in culture; format: cell-based, Staphylococcus aureus; conditions: for MIC: Staphylococcus aureus, 24 h, read-out: MIC, single antimicrobial
Method: as §1, §2
(§4) Antimicrobial activity was measured using the AAMP assay as described in Example 2.
(§5) Synergy testing was performed as in Example 2.

[1] = tested on: S. pseudintermedius MRSP 45; experiment: microbe, parasite or virus in culture; format: cell-based, Staphylococcus pseudintermedius; conditions: Staphylococcus pseudintermedius, MRSP45; MRSP 45; 24 h; Table 8; read-out: MIC, single component
Method: as §1, §2, §4, §5

S. aureus LMG3265 = experiment: AAMP assay (MIC), single components and formulation mixture; format: cell-based, Staphylococcus aureus; conditions: Staphylococcus aureus, LMG3265, 24 h; read-out: MIC, single component
Method: as §1, §3

S. aureus LMG3314 = experiment: as above; format: cell-based, Staphylococcus aureus; conditions: Staphylococcus aureus, LMG3314, 24 h; read-out: MIC, single component
Method: as §1, §3

S. aureus LMG3328 = experiment: as above; format: cell-based, Staphylococcus aureus; conditions: Staphylococcus aureus, LMG3328, 24 h; read-out: MIC, single component
Method: as §1, §3

S. aureus LMG3263 = experiment: as above; format: cell-based, Staphylococcus aureus; conditions: Staphylococcus aureus, LMG3263, 24 h; read-out: MIC, single component
Method: as §1, §3

S. aureus LMG3026 = experiment: as above; format: cell-based, Staphylococcus aureus; conditions: Staphylococcus aureus, LMG3026, 24 h; read-out: MIC, single component
Method: as §1, §3

S. aureus LMG3264 = experiment: as above; format: cell-based, Staphylococcus aureus; conditions: Staphylococcus aureus, LMG3264, 24 h; read-out: MIC, single component
Method: as §1, §3

S. aureus LMG3266 = experiment: as above; format: cell-based, Staphylococcus aureus; conditions: Staphylococcus aureus, LMG3266, 24 h; read-out: MIC, single component
Method: as §1, §3

S. aureus LMG3322 = experiment: as above; format: cell-based, Staphylococcus aureus; conditions: Staphylococcus aureus, LMG3322, 24 h; read-out: MIC, single component
Method: as §1, §3

S. aureus LMG3307 = experiment: as above; format: cell-based, Staphylococcus aureus; conditions: Staphylococcus aureus, LMG3307, 24 h; read-out: MIC, single component
Method: as §1, §3

S. aureus LMG3242 = experiment: as above; format: cell-based, Staphylococcus aureus; conditions: Staphylococcus aureus, LMG3242, 24 h; read-out: MIC, single component
Method: as §1, §3

S. aureus LMG3255 = experiment: as above; format: cell-based, Staphylococcus aureus; conditions: Staphylococcus aureus, LMG3255, 24 h; read-out: MIC, single component
Method: as §1, §3

S. aureus LMG3271 = experiment: as above; format: cell-based, Staphylococcus aureus; conditions: Staphylococcus aureus, LMG3271, 24 h; read-out: MIC, single component
Method: as §1, §3

S. aureus LMG3258 = experiment: as above; format: cell-based, Staphylococcus aureus; conditions: Staphylococcus aureus, LMG3258, 24 h; read-out: MIC, single component
Method: as §1, §3

[2] = tested on: three MRSA strains (ATCC33591-lux, USA-300 and MRSA 43484); experiment: AAMP assay and checkerboard synergy, summary; format: cell-based, Staphylococcus aureus; conditions: for MIC of the antimicrobial in comb. with GarKS: All three strains; for synergy with GarKS: checkerboard assay
Method: as §2, with “Briefly,” for “Synergy testing was done with a microtiter plate checkerboard assay as previously described (Orhan et al., 2005, J. Clin. Microbiol., Vol. 43(1), p 140-143). Briefly,”, “A 100 μl volume of 25 times diluted ON bacterial culture of MRSA was transferred into each well of plate 3.” left out
Three-component synergy was assessed by mixing the three components (100 μg of PenG, 50 μg of GarKS and 2.5 μg of MP1) into one well of a microtiter plate, compared with activity of individual antimicrobials on the same plate.

[3] = tested on: Methicillin-Resistant Staphylococcus aureus; format: in vivo, mice; conditions: repeat on larger groups
Method: The experiment was performed essentially as set out in Example 2, except that the following regimes as described below, were used.
50-70 μl of cream was applied per wound.
Treatment was daily for 4 days.
The rifampicin/MP1 experiment was repeated on a larger group of mice in each category (8 mice for each of rifampicin, MP1, rifampicin+MP1, 8 mice with APO base cream 30% as used for rifampicin and MP1, 7 mice untreated). Seven mice were also treated with fucidin cream (2% fusidic acid in a cream base) as a positive control.

E. faecium LMGT 3104 = experiment: microbe, parasite or virus in culture; format: cell-based, Enterococcus faecium
Method: as §1, §2, §4, §5

Row | Molecule | MIC of the antimicrobial in comb. with GarKS (MRSA 43484) [µg/mL] | MIC (MRSA 43484) [µg/mL] | MIC of the antimicrobial in comb. with GarKS (MRSA ATCC 33591-lux; MRSA ATCC 33591-lux) | MIC of the antimicrobial in comb. with GarKS (MRSA USA-300; MRSA USA-300) [µg/mL] | MIC of MP1 in comb. with the labelled antimicrobial (MRSA ATCC 33591) [µg/mL] | MIC of the labelled antimicrobial in comb. with MP1 (MRSA ATCC 33591) [µg/mL] | MIC (MRSA ATCC 33591) [µg/mL] | MIC [1] [µg/mL] | MIC (S. aureus LMG3265) [µg/mL] | MIC (S. aureus LMG3314) [µg/mL] | MIC (S. aureus LMG3328) [µg/mL] | MIC (S. aureus LMG3263) [µg/mL] | MIC (S. aureus LMG3026) [µg/mL] | MIC (S. aureus LMG3264) [µg/mL] | MIC (S. aureus LMG3266) [µg/mL] | MIC (S. aureus LMG3322) [µg/mL] | MIC (S. aureus LMG3307) [µg/mL] | MIC (S. aureus LMG3242) [µg/mL] | MIC (S. aureus LMG3255) [µg/mL] | MIC (S. aureus LMG3271) [µg/mL] | other results
1 | O=C(N[C@H](CO)[C@H](O)c1ccc([N+](=O)[O-])cc1)C(Cl)Cl [Cam, Chloramphenicol] | 64 | 16 | 32/32 μg/ml | 64 | 0.08 | 8 | 62 | 62 | 32 | 8 | 8 | 32 | 8 | 16 | 32 | 8 | 8 | 8 | 16 | 16 | MIC (MRSA ATCC 33591-lux): 125 µg/mL; MIC (MRSA USA-300; MRSA): 125 µg/mL; MIC (S. aureus LMG3258): 16 µg/mL; MIC of the antimicrobial in comb. with GarKS [2]: 32 to 64 µg/mL; MIC ([2]; Staphylococcus aureus, 24 h, read-out: MIC, single antimicrobial, All three strains): 16 to 125 µg/mL; synergy with GarKS [2]: no synergy or only additive effects
2 | CO[C@H]1/C=C/O[C@@]2(C)Oc3c(C)c(O)c4c(O)c(c(/C=N/N5CCN(C)CC5)c(O)c4c3C2=O)NC(=O)/C(C)=C\C=C\[C@H](C)[C@H](O)[C@@H](C)[C@@H](O)[C@@H](C)[C@H](OC(C)=O)[C@@H]1C [Rifampicin] | – | – | – | – | 0.08 | 1.5 | > 100 | – | – | – | – | – | – | – | – | – | – | – | – | – | duration of the antimicrobial effect [3]: less than 48 hours
3 | [H]/N=C(/N)N[C@H]1[C@H](O)[C@@H](O)[C@H](O[C@@H]2O[C@@H](C)[C@](O)(C=O)[C@H]2O[C@@H]2O[C@@H](CO)[C@H](O)[C@@H](O)[C@@H]2NC)[C@@H](N/C(N)=N\[H])[C@@H]1O [Str, Streptomycin] | 32 | 62 | 32 µg/mL | 32 | – | – | – | > 2500 | 31 | 62 | 62 | 31 | 31 | > 250 | > 125 | 62 | 62 | 250 | 125 | 125 | MIC, single antimicrobial (MRSA ATCC 33591-lux; MRSA ATCC 33591-lux): >2500 µg/mL; MIC (MRSA ATCC 33591-lux; MRSA ATCC 33591-lux): > 2500 µg/mL; MIC (MRSA USA-300; MRSA USA-300): 62 µg/mL; MIC (S. aureus LMG3258): 62 µg/mL; MIC of the antimicrobial in comb. with GarKS [2]: 32 µg/mL; synergy with GarKS [2]: moderate synergy with GarKS only against two MRSA out of three
4 | MKFKFNPTGTIVKKLTQYEIAWFKNKHGYYPWEIPRC [EntK1] | – | – | – | – | – | – | – | – | – | – | – | – | – | – | – | – | – | – | – | – | MIC of MP1 in comb. with the labelled antimicrobial (E. faecium LMGT 3104): 0.02 µg/mL; MIC of the labelled antimicrobial in comb. with MP1 (E. faecium LMGT 3104): 0.4 µg/mL; MIC, single antimicrobial (E. faecium LMGT 3104): >250 µg/mL
